Consider one sequence from PMC7602804 (Nutrients, 2020).

No end group written: not given here.

Series [1] concerns pepsin, then trypsin, chymotrypsin and elastase. The experiment in a line: In vitro simulation of gastrointestinal digestion. Format: in vitro ADME. To be noted: 37 °C. The procedure:
The purified milk peptides and the synthesized PIGSENSEKTTMPLW and […] peptides were subjected to digestion, essentially as described in [5, 26] with few modifications. The peptides were dissolved in 0.15 M of NaCl with a pH of 2.5 at a concentration of 1 mg/mL and incubated with pepsin from porcine gastric mucosa in a 1:100 w/w enzyme to substrate ratio for 60 min at 37 °C. Before digestion with pancreatic proteases, the sample was lyophilized and washed twice in deionized water. Trypsin and chymotrypsin from a bovine pancreas (Worthington Biochemical Corporation, NJ, USA) (1:100 w/w) and elastase (Worthington) (1:500 w/w) were added in 50 mM of ammonium bicarbonate buffer (pH = 7.6) and the mixture was incubated for 60 min at 37 °C. In digests of the synthesized peptides, aliquots were sampled and analyzed after 5 min, 30 min, 60 min and 270 min incubation with the intestinal enzymes. Bovine milk osteopontin was purified as previously described and incubated with the digestive proteases to validate their activity. The digested milk peptides were separated by RP-HPLC on an Aeris C4 widepore column (Phenomenex, Værløse, Denmark) connected to a Shimadzu (Kyoto, Japan) HPLC system. The peptides were separated in 0.1% TFA (buffer A) and eluted with a gradient of 60% acetonitrile in 0.1% TFA (buffer B) at 40 °C. The gradient was developed over 59 min (0–5 min: 0% buffer B; 5–49 min: 0–98% buffer B; 49–59 min: 98% buffer B) at a flow rate of 0.85 mL/min. The peptides were detected by measuring the absorbance at 226 nm and analyzed by matrix-assisted laser desorption ionization time-of-flight mass spectrometry (MALDI-MS).
MALDI-MS was performed using a Bruker Autoflex III instrument (Bruker Daltonics, Bremen, Germany). The analysis was performed using a saturated solution of α-cyano-4-hydroxycinnamic acid. The instrument was operated in reflected positive ionization mode and calibrated in the mass range of 1000 to 3200 Da using a peptide calibration standard (Bruker Daltonics, Bremen, Germany). The theoretical peptide masses were calculated using the General Protein/Mass Analysis for Windows software (Lighthouse Data, Odense, Denmark).

The next series deals with Caco-2 monolayers. The experiment in a line: Apical to basolateral transport of milk peptides across Caco-2 monolayers (LC-MS/MS of basolateral medium). Format: in vitro ADME, human. Conditions: 2.5 h. The protocol: The human colorectal adenocarcinoma cell line, Caco-2, was obtained from DSMZ (Braunschweig, Germany). The cells were grown to 50–60% confluence in Dulbecco’s Modified Eagle Medium (DMEM) Glutamax cell culture medium, supplemented with 10% heat-inactivated fetal bovine serum, 100 units/mL of penicillin and 100 μg/mL of streptomycin (all from Invitrogen, Carlsbad, CA, USA) in a humidified 5% CO2/95% air atmosphere at 37 °C. The cells used in the experiments were between passages 30 and 40.
The Caco-2 cells used for transport studies were seeded in polyethylene terephthalate culture inserts, with a pore size of 0.4 μm and a growth area of 0.33 cm^2 at a density of approximately 25,000 cells/insert. The Caco-2 cells were grown for three weeks on the porous membrane before they were used for transepithelial transport. The integrity of the monolayers was confirmed by measuring the TEER using a Millicell ERS-2 volt ohmmeter. Only Caco-2 monolayers with TEER values above 400 Ω cm^2 were used for the transport analysis.
Following the TEER value measurement, the Caco-2 and PBEC monolayers were gently washed twice with phosphate-buffered saline, and the transport medium (Hanks’ Balanced Salt solution supplemented with 10 mM of HEPES) was added to the apical and basolateral compartments. The inserts were incubated for 15 min or 2.5 h with the purified milk peptides (0.1 mg/mL) or the synthetic PIGSENSEKTTMPLW peptide (2 µg/mL), after which medium from the apical and basolateral compartments were collected for liquid chromatography tandem mass spectrometry (LC-MS/MS) analysis. Inserts incubated with a medium without peptides served as the control in the transport experiments. Membrane integrity was validated by addition of D-[1-^14C]-Mannitol (3.5 µM, 56.8 mCi/mmol) (Perkin Elmer, Waltham, MA, USA) to the upper chamber of the culture inserts with or without milk peptides for 2.5 h. The passive permeability experiments were performed on four or five individual culture inserts. Basolateral samples were mixed with Ultima Gold liquid scintillation fluid (Perkin Elmer) and counted in a Tri-Carb 2810 TR scintillation counter (Perkin Elmer). The apparent permeability coefficient (Papp, cm/s) was determined as Papp = (dQ/dt)/(AC0) where dQ/dt is the steady state flux (cpm/s), A is the surface area of the cell culture insert membrane and C0 is the initial concentration in the apical compartment (cpm/mL).
LC-MS/MS analysis was performed on a TripleTOF 6600 mass spectrometer equipped with an Exigent nanoLC 415 system (AB Sciex, Les Ulis, France). All samples were micro-purified using 3 M Empore C18 discs packed in pipette tips. The lyophilized samples were dissolved in 0.1% formic acid, injected on a trap column (2 cm × 100 µm inner diameter) and separated on an analytical column packed in-house in a pulled emitter (15 cm × 75 µm inner diameter). All columns were packed with ReproSil-Pur C18-AQ 3 µm resin (courtesy of Dr. Marisch, Ammerbuch-Entringen, Germany). Peptides were eluted directly into the mass spectrometer with a linear gradient from 5 to 35% solvent B (0.1% formic acid in acetonitrile) for 20 min with a flowrate of 250 nL/min, followed after 10 min with 100% solvent B. Data files were converted to Mascot Generic Format using the Raw Converter (version 1.1.0.18) (http://fields.scripps.edu/rawconv/) or the AB Sciex MS Data Converter beta 1.1 (AB Sciex, Les Ulis, France). The generated peak lists were searched against the Bos taurus proteome (UniProt database, https://www.uniprot.org)) using an in-house Mascot search engine (Matrix Science, London, UK). The searches were made without specifying a protease and with oxidation (Met) and phosphorylation (ST) as variable modifications. Peptide tolerance was set to 10 ppm and MS/MS tolerance was set to 0.2 Da. […]

In the case of PIGSENSEKTTMPLW [PIGSENSEKTTMPLW], the “Stability of the synthetic peptide / control in simulated gastrointestinal digestion” value in series [1] (1 mg/mL, pepsin 1:100 w/w, 0.15 M NaCl pH 2.5, 60 min, chymotrypsin 1:100 and elastase 1:500 w/w, 50 mM ammonium bicarbonate pH 7.6, 37 °C, sampled 5, 30, 60 and 270 min, MALDI-MS (osteopontin: SDS-PAGE)) is recorded as “observed even after 270 min of digestion”. In addition, in series [1] (purified milk peptides 1 mg/mL, pepsin 1:100, pH 2.5, 60 min, chymotrypsin 1:100, elastase 1:500, pH 7.6, 60 min, RP-HPLC fractions, MALDI-MS, before and after digestion), the “Resistance to simulated gastrointestinal digestion within the purified milk peptide mix” value is “observed”. For the same sequence, in the series with Caco-2 monolayers (Caco-2, 3 weeks on PET inserts 0.4 μm, TEER above 400 Ω cm^2, A-B, mix of 192 purified milk peptides 0.1 mg/mL apical, HBSS + 10 mM HEPES, LC-MS/MS of basolateral medium, identified in two out of three experiments), the “Peptide identified in the basolateral chamber of Caco-2 monolayers (transported)” value was “identified in the basolateral chamber”. Further, the “Fate of synthetic peptide during transport over Caco-2 monolayers” value in the series on Caco-2 monolayers (synthetic peptide 2 µg/mL apical, LC-MS/MS of basal medium) is given as “cleaved by carboxypeptidases during the transport”.
